Laboratory results published in ChEMBL document CHEMBL1201862, “PubChem BioAssay data set” (2004).
Where “and” joins values, the source holds several entries; their conditions need not be identical. Equal values may be shown once.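 Interpolation was linear, between the two tested concentrations surrounding the appropriate level; five concentrations were tested over 48 hours in 96-well plates. Here, GI50 denotes the concentration required for 50% inhibition of growth.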 Calls of active or inactive are those of the source. Cut-off read from the data, not from the text of the source: active = GI50 up to about 1.1 µM and inactive = higher.

Experiments:
Test in all cases: growth of human tumour cells (NCI), 48 h
EKVX = test system: EKVX
SNB-19 = test system: SNB-19
KM12 = test system: KM12
SK-MEL-2 = test system: SK-MEL-2
A498 = test system: A498
HOP-62 = test system: HOP-62
TK-10 = test system: TK-10
OVCAR-4 = test system: OVCAR-4
ACHN = test system: ACHN
OVCAR-3 = test system: OVCAR-3
CCRF-CEM = test system: CCRF-CEM
786-0 = test system: 786-0
SNB-75 = test system: SNB-75
RXF 393 = test system: RXF 393
RPMI-8226 = test system: RPMI-8226

Measured: GI50

C/C(=N\OCC(O)CNC(C)C)c1ccc2c(c1)NC(=O)CS2 (centres undefined)
inactive: EKVX > 100 µM | SNB-19 > 100 µM | KM12 > 100 µM | SK-MEL-2 > 100 µM | A498 > 100 µM | HOP-62 > 100 µM | TK-10 > 100 µM | OVCAR-4 > 100 µM | ACHN > 100 µM | OVCAR-3 > 100 µM | CCRF-CEM > 100 µM | 786-0 > 100 µM | SNB-75 50.6 µM | RXF 393 > 100 µM

CCOC(=O)/C(=C/c1ccc(C(F)(F)F)cc1)N(CC)CC
inactive: EKVX > 100 µM | KM12 44.4 µM | SK-MEL-2 25.7 µM | RPMI-8226 > 100 µM | A498 > 100 µM | HOP-62 42.6 µM | TK-10 > 100 µM | OVCAR-4 78.9 µM | ACHN 42.1 µM | CCRF-CEM > 100 µM | 786-0 > 100 µM | SNB-75 > 100 µM

O=C1c2ccccc2-c2c3c(cc4ccnc1c24)OCO3 [LIRIODENINE]
inactive: EKVX 3.46 µM and 5.15 µM | SNB-19 5.68 µM and 8 µM | KM12 6.44 µM and 6.5 µM | SK-MEL-2 4.19 µM and 6 µM | RPMI-8226 3.2 µM and 3.48 µM | A498 3.48 µM | HOP-62 3.89 µM | OVCAR-4 5.07 µM and 8.24 µM | ACHN 3.94 µM and 4.32 µM | OVCAR-3 9.25 µM and 10.5 µM | CCRF-CEM 4.1 µM and 2.7 µM | 786-0 4.25 µM and 7.69 µM | SNB-75 4.18 µM and 6 µM | RXF 393 5.55 µM and 5.06 µM

OC1c2ccccc2C2(O)C1C(c1ccccc1)C(c1ccccc1)C2(O)c1ccccc1 (centres undefined)
inactive: EKVX 15.4 µM | SNB-19 23.5 µM | KM12 10.6 µM | SK-MEL-2 10.3 µM | RPMI-8226 4.65 µM | HOP-62 13.2 µM | TK-10 23.2 µM | OVCAR-4 19.5 µM | ACHN 5.82 µM | OVCAR-3 4.88 µM | CCRF-CEM 8.18 µM | 786-0 11.5 µM | SNB-75 12.1 µM | RXF 393 16 µM

CCOC(=O)C1N(S(=O)(=O)c2ccc(C)cc2)CCC12C(c1ccc(OC)cc1)NC1CCCCC12 (centres undefined)
inactive: EKVX > 100 µM | SNB-19 > 100 µM | KM12 > 100 µM | RPMI-8226 > 100 µM | A498 > 100 µM | HOP-62 98.6 µM | TK-10 > 100 µM | OVCAR-4 27.2 µM | ACHN > 100 µM | OVCAR-3 > 100 µM | CCRF-CEM > 100 µM | 786-0 68.7 µM | SNB-75 28.9 µM | RXF 393 44.4 µM

CCOC(=O)C(Cc1ccc([N+](=O)[O-])cc1)NC(=O)CC1c2ccccc2-c2ccccc21 (centres undefined)
inactive: EKVX > 100 µM | SNB-19 39.3 µM | KM12 > 100 µM | SK-MEL-2 45.1 µM | RPMI-8226 > 100 µM | A498 > 100 µM | HOP-62 35.2 µM | TK-10 32.7 µM | OVCAR-4 55 µM | ACHN 20.7 µM | OVCAR-3 > 100 µM | CCRF-CEM > 100 µM | 786-0 39.1 µM | SNB-75 26.1 µM | RXF 393 18 µM

Cc1c2c(c(C)c3c1[nH]c1ccccc13)CN(C)CC2
inactive: SNB-19 27.4 µM | KM12 16.6 µM | SK-MEL-2 17.3 µM | RPMI-8226 26.4 µM | A498 19.5 µM | HOP-62 23.2 µM | TK-10 29.4 µM | OVCAR-4 23.4 µM | ACHN 18.2 µM | OVCAR-3 18.7 µM | CCRF-CEM 49.4 µM | 786-0 14.9 µM | SNB-75 13.5 µM | RXF 393 17.6 µM

O=C(O)CCSC(=O)Nc1cccc(F)c1
inactive: EKVX 3.55 µM | SNB-19 > 100 µM | KM12 > 100 µM | SK-MEL-2 > 100 µM | RPMI-8226 > 100 µM | A498 > 100 µM | HOP-62 14.3 µM | TK-10 > 100 µM | ACHN > 100 µM | OVCAR-3 40.6 µM | CCRF-CEM > 100 µM | 786-0 > 100 µM

CC1CN(c2ccc(Cl)cc2)CC(C)(C)OC(=O)O1 (centres undefined)
inactive: EKVX > 100 µM | SNB-19 > 100 µM | KM12 > 100 µM | SK-MEL-2 > 100 µM | RPMI-8226 > 100 µM | HOP-62 > 100 µM | TK-10 > 100 µM | OVCAR-4 > 100 µM | ACHN > 100 µM | OVCAR-3 > 100 µM | CCRF-CEM > 100 µM | 786-0 > 100 µM | SNB-75 > 100 µM | RXF 393 > 100 µM

C=CCc1cc(OC)c2c(c1)C(O)CC(c1ccccc1)O2 (centres undefined)
inactive: EKVX > 100 µM | SNB-19 > 100 µM | KM12 > 100 µM | SK-MEL-2 > 100 µM | HOP-62 > 100 µM | TK-10 > 100 µM | OVCAR-4 > 100 µM | ACHN > 100 µM | OVCAR-3 > 100 µM | CCRF-CEM > 100 µM | 786-0 > 100 µM | SNB-75 > 100 µM

Cc1ccc(/C=N/NS(=O)(=O)c2ccccc2)c(C)c1
inactive: EKVX > 100 µM | KM12 > 100 µM | SK-MEL-2 > 100 µM | RPMI-8226 > 100 µM | A498 > 100 µM | HOP-62 > 100 µM | TK-10 > 100 µM | OVCAR-4 > 100 µM | ACHN > 100 µM | OVCAR-3 > 100 µM | CCRF-CEM 78.9 µM | 786-0 > 100 µM | SNB-75 > 100 µM | RXF 393 > 100 µM

COC(=O)c1c[nH]cc1CCCCc1c[nH]cc1C(=O)OC
inactive: EKVX > 100 µM | SNB-19 > 100 µM | KM12 > 100 µM | SK-MEL-2 > 100 µM | A498 > 100 µM | HOP-62 > 100 µM | TK-10 > 100 µM | OVCAR-4 > 100 µM | ACHN > 100 µM | OVCAR-3 > 100 µM | CCRF-CEM > 100 µM | 786-0 89.1 µM | RXF 393 > 100 µM

COC(=O)[C@]1(C)CCC[C@]2(C)C3CC4OOC3(C=C4C(C)C)CCC21 (some centres undefined)
inactive: EKVX 16.7 µM | SNB-19 17.4 µM | KM12 17.4 µM | SK-MEL-2 17.2 µM | RPMI-8226 12.7 µM | A498 11.4 µM | HOP-62 24.5 µM | TK-10 23.4 µM | OVCAR-4 19.9 µM | ACHN 17.4 µM | OVCAR-3 31.8 µM | CCRF-CEM 3.01 µM | 786-0 5.51 µM

COc1ccc(N2C(=O)C3c4[nH]c5ccccc5c4C4CCCCCCC4C3C2=O)cc1 (centres undefined)
inactive: EKVX 14 µM | SNB-19 10.2 µM | KM12 > 51.2 µM | SK-MEL-2 26.2 µM | RPMI-8226 50.4 µM | A498 25.5 µM | HOP-62 8.22 µM | TK-10 20.1 µM | OVCAR-4 15.9 µM | ACHN 6.38 µM | OVCAR-3 5.93 µM | CCRF-CEM 4.12 µM | 786-0 3.13 µM | SNB-75 11.9 µM
